Test results published in the supplement of paper PMC10307832.

Columns and labels:
Assay in all cases: relative viability (nuclei count vs DMSO), 5 days (fraction); higher = more cells survive
JZL-184 + Trametinib = compound: C1CN(CCC1C(C2=CC3=C(C=C2)OCO3)(C4=CC5=C(C=C4)OCO5)O)C(=O)OC6=CC=C(C=C6)[N+](=O)[O-] [JZL-184] + CC(=O)Nc1cccc(-n2c(=O)n(C3CC3)c(=O)c3c(Nc4ccc(I)cc4F)n(C)c(=O)c(C)c32)c1 [Trametinib] (partner 0.02 µM)
In short: (§1)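 One day after seeding in 1536-well plates, lung cancer cell lines were dosed by pin tool. Dosing was either single-drug or a fixed anchor-drug dose plus five library-drug doses (not always all listed) in √10 steps. After 5 days, nuclei were stained in one fix-and-stain step and counted on 4× images, and relative viability is the nuclei count of treated wells over that of vehicle wells, given as the median of duplicate plates.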

JZL-184 + AZD7762 = compound: C1CN(CCC1C(C2=CC3=C(C=C2)OCO3)(C4=CC5=C(C=C4)OCO5)O)C(=O)OC6=CC=C(C=C6)[N+](=O)[O-] [JZL-184] + NC(=O)Nc1cc(-c2cccc(F)c2)sc1C(=O)N[C@H]1CCCNC1 [AZD7762] (partner 0.2 µM)
In short: as §1

JZL-184 + Tozasertib = compound: C1CN(CCC1C(C2=CC3=C(C=C2)OCO3)(C4=CC5=C(C=C4)OCO5)O)C(=O)OC6=CC=C(C=C6)[N+](=O)[O-] [JZL-184] + Cc1cc(Nc2cc(N3CCN(C)CC3)nc(Sc3ccc(NC(=O)C4CC4)cc3)n2)n[nH]1 [Tozasertib] (partner 0.1 µM)
In short: as §1

JZL-184 + Palbociclib = compound: C1CN(CCC1C(C2=CC3=C(C=C2)OCO3)(C4=CC5=C(C=C4)OCO5)O)C(=O)OC6=CC=C(C=C6)[N+](=O)[O-] [JZL-184] + CC(=O)c1c(C)c2cnc(Nc3ccc(N4CCNCC4)cn3)nc2n(C2CCCC2)c1=O [Palbociclib] (partner 0.5 µM)
In short: as §1

JZL-184 + Dasatinib = compound: C1CN(CCC1C(C2=CC3=C(C=C2)OCO3)(C4=CC5=C(C=C4)OCO5)O)C(=O)OC6=CC=C(C=C6)[N+](=O)[O-] [JZL-184] + Cc1nc(Nc2ncc(C(=O)Nc3c(C)cccc3Cl)s2)cc(N2CCN(CCO)CC2)n1 [Dasatinib] (partner 0.075 µM)
In short: as §1

| Cell Line | relative viability (JZL-184 + Trametinib; first compound 0.04 µM) | relative viability (JZL-184 + Trametinib; first compound 0.4 µM) | relative viability (JZL-184 + Trametinib; first compound 1.265 µM) | relative viability (JZL-184 + Trametinib; first compound 4 µM) | relative viability (JZL-184 + AZD7762; first compound 0.04 µM) | relative viability (JZL-184 + AZD7762; first compound 0.4 µM) | relative viability (JZL-184 + AZD7762; first compound 1.265 µM) | relative viability (JZL-184 + AZD7762; first compound 4 µM) | relative viability (JZL-184 + Tozasertib; first compound 0.04 µM) | relative viability (JZL-184 + Tozasertib; first compound 0.4 µM) | relative viability (JZL-184 + Tozasertib; first compound 1.265 µM) | relative viability (JZL-184 + Tozasertib; first compound 4 µM) | relative viability (JZL-184 + Palbociclib; first compound 0.04 µM) | relative viability (JZL-184 + Palbociclib; first compound 0.4 µM) | relative viability (JZL-184 + Palbociclib; first compound 1.265 µM) | relative viability (JZL-184 + Palbociclib; first compound 4 µM) | relative viability (JZL-184 + Dasatinib; first compound 0.04 µM) | relative viability (JZL-184 + Dasatinib; first compound 0.4 µM) | relative viability (JZL-184 + Dasatinib; first compound 1.265 µM) | relative viability (JZL-184 + Dasatinib; first compound 4 µM) |
| --- | --- | --- | --- | --- | --- | --- | --- | --- | --- | --- | --- | --- | --- | --- | --- | --- | --- | --- | --- | --- |
| NCI-H1666 | 0.888 | 0.828 | 0.856 | 0.839 | 0.915 | 0.764 | 0.818 | 0.923 | 0.603 | 0.626 | 0.581 | 0.598 | 0.685 | 0.642 | 0.636 | 0.668 | 0.842 | 0.861 | 0.764 | 0.783 |
| ABC-1 | – | – | – | – | – | – | 0.715 | 0.968 | 0.195 | 0.202 | 0.174 | 0.164 | 0.861 | 0.641 | 0.399 | 0.696 | 0.601 | 0.479 | 0.533 | 0.482 |
| HCC-44 | 1.04 | 1.07 | 1.04 | 1.01 | 1.14 | 1.01 | 1.03 | 0.987 | 1.27 | 0.805 | 1.26 | 0.983 | 0.965 | 0.967 | 1.03 | 0.981 | – | – | – | – |
| SK-LU-1 | 0.448 | 0.402 | 0.653 | 0.46 | – | – | – | – | 0.372 | 0.328 | 0.329 | 0.338 | 0.387 | 0.393 | 0.433 | 0.405 | 0.183 | 0.196 | 0.194 | 0.207 |
| NCI-H1703 | – | – | – | – | 0.106 | 0.117 | 0.129 | 0.112 | – | – | – | – | – | – | – | – | – | – | – | – |
| NCI-H2023 | 0.717 | 0.612 | 0.568 | 0.54 | – | – | – | – | 0.356 | 0.318 | 0.345 | 0.296 | 0.56 | 0.354 | 0.393 | 0.249 | 0.713 | 0.549 | 0.587 | 0.48 |
| NCI-H661 | 0.606 | 0.531 | 0.548 | 0.586 | – | – | – | – | 0.364 | 0.354 | 0.337 | 0.325 | 0.408 | 0.378 | 0.399 | 0.403 | 0.95 | 0.851 | 0.907 | 0.867 |
| COR-L 105 | 0.454 | 0.443 | 0.439 | 0.414 | – | – | – | – | 0.381 | 0.398 | 0.381 | 0.319 | 0.464 | 0.376 | 0.371 | 0.409 | 0.493 | 0.389 | 0.35 | 0.336 |
| NCI-H2228 | 0.465 | 0.472 | 0.704 | 0.629 | – | – | – | – | 0.327 | 0.299 | 0.282 | 0.271 | 0.947 | 0.511 | 0.842 | 0.768 | 0.663 | 0.445 | 0.543 | 0.587 |
| NCI-H596 | 0.86 | 0.76 | 0.801 | 0.767 | 1.16 | 0.911 | 1.11 | 1.29 | 0.878 | 0.932 | 0.861 | 0.931 | – | – | – | – | 0.739 | 0.437 | 0.658 | 0.566 |
| NCI-H1650 | 0.778 | 0.403 | 0.801 | 0.657 | – | – | – | – | 0.417 | 0.325 | 0.432 | 0.257 | 0.395 | 0.368 | 0.408 | 0.302 | 0.306 | 0.297 | 0.388 | 0.296 |
| NCI-H1792 | 0.347 | 0.406 | 0.495 | 0.448 | 0.747 | 0.548 | 0.713 | 0.858 | – | – | – | – | 0.677 | 0.687 | 0.659 | 0.656 | 0.854 | 0.771 | 0.912 | 0.718 |
| SK-MES-1 | 0.623 | 0.524 | 0.609 | 0.5 | – | – | – | – | 1.04 | 0.878 | 0.908 | 0.706 | 0.372 | 0.311 | 0.316 | 0.297 | 0.332 | 0.486 | 0.359 | 0.445 |
| UMC-11 | 0.891 | 0.679 | 0.736 | 0.646 | – | – | – | – | 0.177 | 0.21 | 0.206 | 0.196 | 0.327 | 0.339 | 0.366 | 0.35 | 0.662 | 0.474 | 0.494 | 0.447 |
| NCI-H1563 | – | – | – | – | – | – | – | – | – | – | – | – | – | – | – | – | 0.515 | 0.374 | 0.453 | 0.474 |
| COR-L23 | 0.774 | 0.516 | 0.684 | 0.54 | – | – | – | – | 0.197 | 0.181 | 0.215 | 0.143 | 0.337 | 0.234 | 0.287 | 0.273 | 0.596 | 0.425 | 0.514 | 0.407 |
| SW 1573 | 0.602 | 0.564 | 0.589 | 0.445 | – | – | – | – | 0.175 | 0.143 | 0.229 | 0.176 | 0.458 | 0.328 | 0.45 | 0.383 | 0.638 | 0.379 | 0.548 | 0.42 |
